Where two headings read alike, the source gives them in different places.
Columns and labels:
ERα in MCF7 cells = ERα in MCF7 cells (Homo sapiens (Human), UniProt P03372); test: Test C: estrogen receptor degradation activity, ERα in cell western assay in MCF7 cells; format: cell-based; conditions: for DC50: 4 hours post compound addition, ERα in cell western, read-out: Degradation IC50; for % Degradation at 3 μM: 4 hours, relative to fulvestrant
Outline: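 In-cell western, MCF7, 4 h compound exposure, 3–0.000018 μM final, 9 points, 1:5 steps. Formalin/Triton fix, anti-ER rabbit mAb overnight cold, Alexa 488 secondary plus 2 μM Syto-64. Green intensity = ERα, red = DNA; no-primary wells as background.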

[1] = target: His6-ERα298-554 WT (ERα ligand-binding domain) (Homo sapiens (Human), UniProt P03372); test: Test A: biochemical antagonist activity, LanthaScreen TR-FRET ERα coactivator assay, WT; conditions: read-out: Antagonism WT IC50
Chain of His6-ERα298-554 WT (ERα ligand-binding domain) (P03372 298-554): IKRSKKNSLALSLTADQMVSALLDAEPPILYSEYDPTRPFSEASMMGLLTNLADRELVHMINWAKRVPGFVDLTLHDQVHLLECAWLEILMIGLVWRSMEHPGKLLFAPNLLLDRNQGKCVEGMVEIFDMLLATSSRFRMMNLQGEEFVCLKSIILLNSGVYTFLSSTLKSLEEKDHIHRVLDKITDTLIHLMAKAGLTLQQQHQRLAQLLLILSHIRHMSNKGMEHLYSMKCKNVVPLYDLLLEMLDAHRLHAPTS
Outline: (§1)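 IC50 values come from a 4-parameter logistic fit of the 520:495 nm TR-FRET ratio after overnight room-temperature incubation. The mix held 0.5 nM ERα 298–554 LBD, Tb-labelled anti-His6 antibody, 250 nM PGC1a peptide and 3 nM or 10 nM estradiol, pH 7.4 phosphate buffer with DTT.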

[2] = target: His6-ERα298-554 Y537S mutant (ERα ligand-binding domain) (Homo sapiens (Human), UniProt P03372, Y537S); test: Test A: biochemical antagonist activity, LanthaScreen TR-FRET ERα coactivator assay, Y537S mutant; conditions: read-out: Antagonism Y537S IC50
Chain of His6-ERα298-554 Y537S mutant (ERα ligand-binding domain) (P03372 298-554 Y537S): as the sequence (P03372 298-554) above, with Y240S counted along it
Outline: as §1

[3] = test system: MCF7 cells expressing mutant estrogen receptor Asp 538 Gly; test: Test B: cell proliferation/viability assay (CellTiter-Glo) on MCF7 Asp 538 Gly mutant; format: cell-based; conditions: Homo sapiens, MCF7, 168 h, MCF7 cells expressing ER Asp 538 Gly mutant, 7 days of compound exposure, read-out: proliferation MCF7 D538G IC50
Outline: (§2)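 CellTiter-Glo luminescence after 7-day exposure; % viability = background-corrected RLU of sample relative to untreated. MCF7 WT or ER Tyr 537 Ser/Asp 538 Gly mutant-dependent lines, phenol red-free MEM, 5% charcoal-stripped FBS; 3-0.000001 μM, 9 points.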

[4] = target: His6-ERα298-554 D538G mutant (ERα ligand-binding domain) (Homo sapiens (Human), UniProt P03372, D538G); test: Test A: biochemical antagonist activity, LanthaScreen TR-FRET ERα coactivator assay, D538G mutant; conditions: read-out: Antagonism D538G IC50
Chain of His6-ERα298-554 D538G mutant (ERα ligand-binding domain) (P03372 298-554 D538G): as the sequence (P03372 298-554) above, with D241G counted along it
Outline: as §1

[5] = test system: MCF7 cells (breast tumor cells) WT; test: Test B: cell proliferation/viability assay (CellTiter-Glo) on MCF7 WT; format: cell-based; conditions: Homo sapiens, MCF7, 168 h, 7 days of compound exposure
Outline: as §2

[6] = test system: MCF7 cells expressing mutant estrogen receptor Tyr 537 Ser; test: Test B: cell proliferation/viability assay (CellTiter-Glo) on MCF7 Tyr 537 Ser mutant; format: cell-based; conditions: Homo sapiens, MCF7, 168 h, MCF7 cells expressing ER Tyr 537 Ser mutant, 7 days of compound exposure, read-out: proliferation MCF7 Y537S IC50
Outline: as §2

[7] = asterisk (*): protocol using 10 nM estradiol

Chain of ERα in MCF7 cells (P03372 whole entry): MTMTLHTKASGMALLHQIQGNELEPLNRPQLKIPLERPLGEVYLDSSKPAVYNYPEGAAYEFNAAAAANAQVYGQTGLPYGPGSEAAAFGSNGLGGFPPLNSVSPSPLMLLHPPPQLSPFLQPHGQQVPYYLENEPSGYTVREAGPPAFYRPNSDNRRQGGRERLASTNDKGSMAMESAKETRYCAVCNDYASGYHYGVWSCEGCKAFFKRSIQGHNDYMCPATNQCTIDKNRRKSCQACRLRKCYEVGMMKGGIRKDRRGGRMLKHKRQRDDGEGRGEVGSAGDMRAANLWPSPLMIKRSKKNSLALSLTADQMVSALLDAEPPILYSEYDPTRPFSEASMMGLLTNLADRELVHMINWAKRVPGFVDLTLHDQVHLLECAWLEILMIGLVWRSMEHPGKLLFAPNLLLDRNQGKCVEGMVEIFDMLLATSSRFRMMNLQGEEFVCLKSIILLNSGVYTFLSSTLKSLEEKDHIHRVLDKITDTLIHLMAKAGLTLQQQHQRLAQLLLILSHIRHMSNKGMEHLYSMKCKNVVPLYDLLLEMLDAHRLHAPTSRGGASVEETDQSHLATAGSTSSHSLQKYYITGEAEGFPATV

SMILES | DC50 (ERα in MCF7 cells) [nM] | % Degradation at 3 μM (ERα in MCF7 cells) [%] | IC50 [1, 7] [nM] | IC50 [2, 7] [nM] | IC50 [3] [nM] | IC50 [4, 7] [nM] | IC50 [5] [nM] | IC50 [6] [nM] | IC50 ([1]; protocol with 3 nM estradiol) [nM] | IC50 ([2]; protocol with 3 nM estradiol) [nM] | IC50 ([4]; protocol with 3 nM estradiol) [nM]
Oc1ccc2c(c1)CCCC(c1ccc(Cl)cc1Cl)=C2c1cnc(O[C@H]2CCN(CCCF)C2)nc1 [Example 238, 6-(2,4-dichlorophenyl)-5-[2-[(3S)-1-(3-fluoropropyl)pyrrolidin-3-yl]oxypyrimidin-5-yl]-8,9-dihydro-7H-benzo[7]annulen-2-ol] | 0.5 | 87 | 3 | 33 | 0.5 | 59 | 0.3 | 3 |  |  | 
Oc1ccc2c(c1)CCCC(c1ccc(Cl)cc1Cl)=C2c1ccc(O[C@H]2CCN(CCCF)C2)nc1 [Example 239, 6-(2,4-dichlorophenyl)-5-[6-[(3S)-1-(3-fluoropropyl)pyrrolidin-3-yl]oxy-3-pyridyl]-8,9-dihydro-7H-benzo[7]annulen-2-ol] | 0.6 | 87 | 13 | 9 | 1 | 13 | 0.3 | 3 |  |  | 
CCOc1ccc(C2=C(c3ccc(O[C@H]4CCN(CCCF)C4)nc3)c3ccc(O)cc3CCC2)c(F)n1 [Example 240, 6-(6-ethoxy-2-fluoro-3-pyridyl)-5-[6-[(3S)-1-(3-fluoropropyl)pyrrolidin-3-yl]oxy-3-pyridyl]-8,9-dihydro-7H-benzo[7]annulen-2-ol] | 0.3 | 89 | 6 | 4 | 0.5 | 6 | 0.3 | 3 |  |  | 
Oc1ccc2c(c1)CCCC(c1ccc(OC(F)F)c(F)c1)=C2c1ccc(O[C@H]2CCN(CCCF)C2)nc1 [Example 241, 6-[4-(difluoromethoxy)-3-fluoro-phenyl]-5-[6-[(3S)-1-(3-fluoropropyl)pyrrolidin-3-yl]oxy-3-pyridyl]-8,9-dihydro-7H-benzo[7]annulen-2-ol] | 0.2 | 85 | 1 | 16 | 0.2 | 27 | 0.1 | 2 |  |  | 
CC1(C)Cc2cc(C3=C(c4ccc(O[C@H]5CCN(CCCF)C5)nc4)c4ccc(O)cc4CCC3)ccc2N1 [Example 242, 6-(2,2-dimethylindolin-5-yl)-5-[6-[(3S)-1-(3-fluoropropyl)pyrrolidin-3-yl]oxy-3-pyridyl]-8,9-dihydro-7H-benzo[7]annulen-2-ol] | 0.8 | 83 | 1 | 7 | 2 | 9 | 0.7 | 11 |  |  | 
Oc1ccc2c(c1)CCCC(c1ccc(Cl)c(F)c1)=C2c1cnc(O[C@H]2CCN(CCCF)C2)cn1 [Example 243, 6-(4-chloro-3-fluoro-phenyl)-5-[5-[(3S)-1-(3-fluoropropyl)pyrrolidin-3-yl]oxypyrazin-2-yl]-8,9-dihydro-7H-benzo[7]annulen-2-ol] | 0.3 | 91 | 12 | 179 | 0.5 | 386 | 0.2 | 3 |  |  | 
Cc1ccc(C2=C(c3cnc(O[C@H]4CCN(CCCF)C4)nc3)c3ccc(O)cc3CCC2)c(F)c1 [Example 244, 6-(2-fluoro-4-methyl-phenyl)-5-[2-[(3S)-1-(3-fluoropropyl)pyrrolidin-3-yl]oxypyrimidin-5-yl]-8,9-dihydro-7H-benzo[7]annulen-2-ol] | 0.4 | 92 | 3 | 34 | 2 | 67 | 0.9 | 6 |  |  | 
Oc1ccc2c(c1F)CCCC(c1ccc(Cl)cc1Cl)=C2c1ccc(O[C@H]2CCN(CCCF)C2)nc1 [Example 245, 6-(2,4-dichlorophenyl)-1-fluoro-5-[6-[(3S)-1-(3-fluoropropyl)pyrrolidin-3-yl]oxy-3-pyridyl]-8,9-dihydro-7H-benzo[7]annulen-2-ol] | 0.5 | 87 |  |  | 0.1 |  | 0.3 | 3 | 0.4 | 3 | 4
CCOc1ccc(C2=C(c3cnc(O[C@H]4CCN(CCCF)C4)nc3)c3ccc(O)cc3CCC2)c(F)c1F [Example 246, 6-(4-ethoxy-2,3-difluoro-phenyl)-5-[2-[(3S)-1-(3-fluoropropyl)pyrrolidin-3-yl]oxypyrimidin-5-yl]-8,9-dihydro-7H-benzo[7]annulen-2-ol] | 0.5 | 82 | 2 | 26 | 0.4 | 42 | 0.4 | 7 |  |  | 
O=C(O)c1ccc2c(c1)CCCC(c1ccc(Cl)cc1Cl)=C2c1ccc(O[C@H]2CCN(CCCF)C2)nc1 [Example 247, 6-(2,4-dichlorophenyl)-5-[6-[(3S)-1-(3-fluoropropyl)pyrrolidin-3-yl]oxy-3-pyridyl]-8,9-dihydro-7H-benzo[7]annulene-2-carboxylic acid] | 0.2 | 93 | 5 | 72 | 0.4 | 136 | 0.2 | 6 |  |  | 
O=C(O)c1ccc2c(c1)CCCC(c1ccc(OC(F)F)c(F)c1)=C2c1ccc(O[C@H]2CCN(CCCF)C2)nc1 [Example 248, 6-[4-(difluoromethoxy)-3-fluoro-phenyl]-5-[6-[(3S)-1-(3-fluoropropyl)pyrrolidin-3-yl]oxy-3-pyridyl]-8,9-dihydro-7H-benzo[7]annulene-2-carboxylicacid] | 0.7 | 95 | 141 | 1920 | 1 | 3440 | 0.7 | 15 |  |  | 
Oc1ccc2c(c1F)CCCC(c1ccc(OC(F)F)c(F)c1)=C2c1ccc(O[C@H]2CCN(CCCF)C2)nc1 [Example 249, 6-[4-(difluoromethoxy)-3-fluoro-phenyl]-1-fluoro-5-[6-[(3S)-1-(3-fluoropropyl)pyrrolidin-3-yl]oxy-3-pyridyl]-8,9-dihydro-7H-benzo[7]annulen-2-ol] | 0.3 | 87 | 1 | 14 | 0.6 | 24 | 0.3 | 4 |  |  | 
Cc1cc(C2=C(c3ccc(O[C@H]4CCN(CCCF)C4)nc3)c3ccc(O)c(F)c3CCC2)ccc1Cl [Example 250, 6-(4-chloro-3-methyl-phenyl)-1-fluoro-5-[6-[(3S)-1-(3-fluoropropyl)pyrrolidin-3-yl]oxy-3-pyridyl]-8,9-dihydro-7H-benzo[7]annulen-2-ol] | 0.5 | 87 | 7 | 70 | 0.3 | 113 | 0.3 | 4 |  |  | 
CCOc1ccc(C2=C(c3cnc(O[C@H]4CCN(CCCF)C4)nc3)c3ccc(O)cc3CCC2)c(F)n1 [Example 251, 6-(6-ethoxy-2-fluoro-3-pyridyl)-5-[2-[(3S)-1-(3-fluoropropyl)pyrrolidin-3-yl]oxypyrimidin-5-yl]-8,9-dihydro-7H-benzo[7]annulen-2-ol] | 0.5 | 89 | 4 | 57 | 0.5 | 104 | 0.4 | 5 |  |  | 
CCOc1ccc(C2=C(c3ccc(O[C@H]4CCN(CCCF)C4)nc3)c3ccc(O)c(F)c3CCC2)c(F)n1 [Example 252, 6-(6-ethoxy-2-fluoro-3-pyridyl)-1-fluoro-5-[6-[(3S)-1-(3-fluoropropyl)pyrrolidin-3-yl]oxy-3-pyridyl]-8,9-dihydro-7H-benzo[7]annulen-2-ol] | 0.2 | 86 | 0.7 | 9 | 0.4 | 8 | 0.6 | 9 |  |  | 
